Numbered stars: 1 amine (or outer) side, 2 acyl side, 3 side chain; on linkers, the order of the positions; unused ones are H or OH. Peptide text beside a SMILES is read from it. * marks the point of attachment. AMC = Cc1cc(=O)oc2cc(N*)ccc12; Cbz = O=C(OCc1ccccc1)*; Boc = CC(C)(C)OC(=O)*; CO = O=C([*:1])[*:2]
Tests used:
[1] = system: T1, oligopeptidase B (OPB); Nagaimo protease; assay: fluorometric AMC release, Lineweaver-Burk; format: biochemical, Dioscorea polystachya; conditions: Tris-HCl pH 8.0, 37 °C
T1 construct: native, purified from tubers; monomer, 75 kDa by gel filtration, 81 kDa by reducing SDS-PAGE; internal tryptic peptide SAGGLLMGAVLNMR
Description: fluorometric AMC release, Lineweaver-Burk on oligopeptidase B (OPB); Nagaimo protease

[2] = target: T1, oligopeptidase B (OPB); Nagaimo protease; assay: fluorometric AMC release, inhibitor titration; format: biochemical, Dioscorea polystachya; conditions: 100 μM Bz-Arg-MCA, 50 mM Tris-HCl pH 8.0, 10 min preincubation at 23 °C, assay 37 °C
Description: fluorometric AMC release, inhibitor titration on oligopeptidase B (OPB); Nagaimo protease

SMILES: Cc1cc(=O)oc2cc(NC(=O)[C@H](CCCNC(=N)N)NC(=O)[C@@H]3CCCN3C(=O)[C@@H](NC(=O)OC(C)(C)C)C(C)C)ccc12 [Boc-Val-Pro-Arg-MCA] (Boc-Val-Pro-Arg-{AMC})
- Km [1]: 12.5 µM

SMILES: O=c1oc(Cl)c(Cl)c2ccccc12 [DCI, 3,4-dichloroisocoumarin]
- IC50 ([2]; covalent): 30000 nM

SMILES: Cc1cc(=O)oc2cc(NC(=O)[C@H](CCCCN)NC(=O)[C@H](CC(C)C)NC(=O)[C@@H](NC(=O)OC(C)(C)C)C(C)C)ccc12 [Boc-Val-Leu-Lys-MCA] (Boc-Val-Leu-Lys-{AMC})
- Km [1]: 10 µM

SMILES: Cc1cc(=O)oc2cc(NC(=O)[C@H](CCCNC(=N)N)NC(=O)[C@H](CCCNC(=N)N)NC(=O)OCc3ccccc3)ccc12 [Z-Arg-Arg-MCA] (Cbz-Arg-Arg-{AMC})
- Km [1]: 10 µM

SMILES: Cc1ccc(S(=O)(=O)N[C@@H](CCCCN)C(=O)CCl)cc1 [TLCK]
- IC50 ([2]; covalent): 70 nM

SMILES: CCN1C(=O)C=CC1=O [NEM, N-ethylmaleimide]
- IC50 ([2]; covalent, cysteine-directed): 880000 nM

SMILES: Cc1cc(=O)oc2cc(NC(=O)[C@@H](N)CCCNC(=N)N)ccc12 [Arg-MCA]
- Km [1]: 17.9 µM

SMILES: Cc1cc(=O)oc2cc(NC(=O)[C@H](CCCCN)NC(=O)[C@H](CCCCN)NC(=O)[C@H](CCC(=O)O)NC(=O)OC(C)(C)C)ccc12 [Boc-Glu-Lys-Lys-MCA] (Boc-Glu-Lys-Lys-{AMC})
- Km [1]: 5 µM

SMILES: NCCc1ccc(S(=O)(=O)F)cc1 [AEBSF, 4-(2-aminoethyl)-benzenesulfonyl fluoride]
- IC50 ([2]; covalent): 700 nM

SMILES: CC(=O)N[C@@H](CC(C)C)C(=O)N[C@@H](CC(C)C)C(=O)N[C@H](C=O)CCCNC(=N)N [Leupeptin]
- IC50 [2]: 120 nM

SMILES: Cc1cc(=O)oc2cc(NC(=O)[C@H](CCCNC(=N)N)NC(=O)c3ccccc3)ccc12 [Bz-Arg-MCA]
- Km [1]: 10 µM

SMILES: CC(C)[C@H](NC(=O)[C@H](CCCNC(=N)N)NC(=O)N[C@@H](Cc1ccccc1)C(=O)O)C(=O)N[C@H](C=O)CCCNC(=N)N [Antipain] ({Phe-CO}-Arg-Val-Arg-aldehyde)
- IC50 [2]: 210 nM

SMILES: Cc1cc(=O)oc2cc(NC(=O)[C@H](CCCNC(=N)N)NC(=O)[C@H](Cc3ccccc3)NC(=O)OCc3ccccc3)ccc12 [Z-Phe-Arg-MCA] (Cbz-Phe-Arg-{AMC})
- Km [1]: 11 µM

SMILES: Cc1cc(=O)oc2cc(NC(=O)[C@H](CCCNC(=N)N)NC(=O)[C@H](CC(C)C)NC(=O)OCc3ccccc3)ccc12 [Z-Leu-Arg-MCA]
- Km [1]: 12.5 µM

SMILES: Cc1cc(=O)oc2cc(NC(=O)[C@H](CCCNC(=N)N)NC(=O)[C@@H]3CCCN3C(=O)CNC(=O)OCc3ccccc3)ccc12 [Z-Gly-Pro-Arg-MCA] (Cbz-Gly-Pro-Arg-{AMC})
- Km [1]: 11.8 µM

SMILES: Cc1cc(=O)oc2cc(NC(=O)[C@H](CCCNC(=N)N)NC(=O)[C@H](CCCNC(=N)N)NC(=O)[C@H](CCC(N)=O)NC(=O)OC(C)(C)C)ccc12 [Boc-Gln-Arg-Arg-MCA] (Boc-Gln-Arg-Arg-{AMC})
- Km [1]: 15 µM

SMILES: Cc1cc(=O)oc2cc(NC(=O)[C@H](CCCNC(=N)N)NC(=O)[C@@H](NC(=O)[C@@H](NC(=O)OCc3ccccc3)C(C)C)C(C)C)ccc12 [Z-Val-Val-Arg-MCA] (Cbz-Val-Val-Arg-{AMC})
- Km [1]: 10 µM

SMILES: Cc1cc(=O)oc2cc(NC(=O)[C@H](CCCNC(=N)N)NC(=O)[C@H](Cc3ccccc3)NC(=O)[C@@H]3CCCN3)ccc12 [Pro-Phe-Arg-MCA] (H-Pro-Phe-Arg-{AMC})
- Km [1]: 10 µM

Source: PMC12169749, “Isolation, biochemical characterization, and primary structure and active site determination of Dioscorea opposita (‘Nagaimo’) oligopeptidase B” (Biochemistry and Biophysics Reports, 2025)
